This note sets out measurements from US20030061759A1, “Method for expelling harmful insects by volatilization of a chemical” (FUMAKILLA LIMITED, priority 2000, published 2003).

For data set [1], the system named is female adult stegomyia mosquitoes (Aedes albopictus). Description: Comparative debugging efficaciousness tests: bloodsucking prevention on rats, liquid type electric mosquito repellent utensil. Format: in vivo. To be noted: for efficacy of preventing mosquitoes from bloodsucking rats compared with transfluthrin: comparison in words; for Potency Ratio (Etoc 100), of IC50 Value / Potency Ratio (Etoc 100), of IC90 Value: relative to d,d-T80-prallethrin (Etoc) = 100; for IC50 Value (amount of volatilization at a 50% rate of bloodsucking prevention) / IC90 Value (amount of volatilization at a 90% rate of bloodsucking prevention): 13.2 m^2 room, 32° C., 30 min pre-fumigation, 2 hours after release, rats. As to the method: First, debugging efficaciousness tests were performed. For the criterion of judgment to compare degrees of efficaciousness, the effect of bloodsucking by mosquitoes of rats was adopted. Based on this, the following efficaciousness tests were carried out.
Comparative Debugging Efficaciousness Tests
Sample chemicals that were used were as follows: d,d-T80-prallethrin, transfluthrin, d1,d-T80-allethrin, d-T80-furamethrin, terallethrin and empenthrin; and pyrethroid technical products (sample chemicals) A, B, C, D, E, F, G and H.
Sample insects that were used were as follows: female adult stegomyia mosquitoes (Aedes albopictus) of Fumakilla (spelled phonetically) series 6th to 9th after emergence.
Sample chemical volatilizing form: A liquid type electric mosquito repellent utensil, a liquid agent (referred to below as “sample liquid”), obtained by diluting each of the sample chemicals with a solvent in a varying concentration, was allowed to volatilize.
Method used for tests: A test was conducted in two 8 straw mat (13.2 m^2) rooms, one as a treatment zone and the other as a non-treatment zone, both in a no-wind state and at a constant room temperature of 32° C.
In the treatment zone, three cages each with a rat confined therein were placed equidistantly spaced apart (about 20 cm) in the center of the test room. The mosquito repellent utensil placed on the floor surface of the center of the test room was preliminarily electrically energized for operation, and to thermally volatilize each of the sample liquids and fumigate the room therewith for a period of 30 minutes, and then about 100 (one hundred) of sample mosquitoes were released into the test room. After two hours following the release of the mosquitoes, all these sample mosquitoes were knocked-down by using a mosquito repellent mat, and the number of the mosquitoes which had bloodsucking was counted to find the proportion of bloodsucking.
In the non-treatment zone, also, after the 2 hours of bloodsucking, the proportion of bloodsucking was found.
A rate of bloodsucking prevention was derived from the proportions of bloodsucking in the treatment and non-treatment rooms as expressed by the following equation:
Rate of bloodsucking prevention =[(Total bloodsucking proportion in the non-treatment zone−Total bloodsucking proportion in the treatment zone)÷Total bloodsucking proportion in the non-treatment zone]×100
Also, on the basis of these amounts of volatilization and rates of bloodsucking prevention, an amount of volatilization at a 50% rate of bloodsucking prevention (IC50 value) and an amount of volatilization at a 90% rate of bloodsucking prevention (IC90 value) are found and shown in Table 1 below.

Data set [2] can be described thus: Comparative vapor pressure tests by gas chromatography. The data set is classed as physicochemical. As to the method:
2. Comparative Vapor Pressure Tests
Next, by using gas chromatography, the various chemicals including sample chemicals A, B and C screened out by the foregoing comparative debugging efficaciousness tests were compared with d,d-T80-prallethrin (Etoc) as regards to their vapor pressures.
The gas chromatography test included as its temperature conditions an initial temperature of 60° C., and a temperature rise of 5° C. per minute up to a maximum temperature of 250° C., which was held for a period of 5 minutes, whereupon the process ended.
The filler used was made up of methyl silicon polymer, which is non-polar.
It should also be noted that as an internal standard substance use was made of sebacic acid-n-butyl and which was added to confirm that there was no deviation in retention time from one test to another.
Retention times for the various chemicals are listed in Table 2 in the order of shorter to longer.

In data set [3] the test system is female adult common house mosquitoes (Culex pipiens pallens). Briefly: Example 1: spontaneous volatilization efficaciousness test in 33 m^3 room (knockdown, KT50). Format: in vivo. An excerpt:
Using sample chemicals A, B and C screened out by the preliminary tests, the efficaciousness of each of them when allowed to volatilize spontaneously was compared with that of transfluthrin when allowed to volatilize spontaneously.
Sample Preparations (Chemicals and Their Carriers According to the Present Invention):
A non-woven polypropylene fabric (made by Idemitsu Petroleum Chemicals Co., Ltd., product name RW2100, density 100 grams/m^2) of 50 cm×40 cm was coated with a hexane solution of 100 milliliter containing 1% (W/V) sample chemicals A, B, C and left to dry for 24 hours (effective amount of chemical: 1000 milligrams).
Comparative Preparation (Chemical and its Carrier):
A non-woven polypropylene fabric (made by Idemitsu Petroleum Chemicals Co., Ltd., product name RW2100, density 100 grams/m^2) of 50 cm×40 cm was coated with a hexane solution of 100 milliliter containing 1% (W/V) of transfluthrin and left to dry for 24 hours (effective amount of chemical: 1000 milligrams).
Testing Method: Efficaciousness Tests in an 8 Straw Mat room with a volume of 33 m^3
In the center of the test room with a volume of 33 m^3 (3.65 m×3.65 m×2.5 m high), each chemical carrier as prepared as above was placed as hung on a hook suspended in the center of the room to let the corresponding chemical volatilize spontaneously for a period of 3 hours. Thereafter, a triangular net casing (20 cm×20 cm×16.4 cm high) of 16 mesh nylon net containing 10 (ten) female adult common house mosquitoes (Culex pipiens pallens) was placed as hung in an area at each of the four corners (spaced from the wall surfaces at a distance of 90 cm) at a height of 150 cm from the room floor and was exposed to the chemical atmosphere.
A test was also conducted likewise for the comparative carrier.
After the tests ended, the samples chemicals were let to volatilize spontaneously in the room having a constant temperature of 30° C. The same test was repeated at given intervals and efficaciousness was then examined each time.

Setting [4] is: 60° C. initial, 5° C. per minute up to 250° C., non-polar methyl silicon polymer filler.

Like-named read-outs stand apart in the source and are kept apart here.

As for `C#CC(OC(=O)C1C(C=C(C)C)C1(C)C)/C(C)=C/CC` (stereo not drawn) [Empenthrin], in data set [1], the “efficacy of preventing mosquitoes from bloodsucking rats compared with transfluthrin” value (“efficacy … compared with transfluthrin” for short) was “lower effects of preventing mosquitoes from bloodsucking rats than transfluthrin”; the “Potency Ratio (Etoc 100), of IC50 Value” came out at 0.7; the “Potency Ratio (Etoc 100), of IC90 Value” is listed as 1.2. Further, the “Retention Time (gas chromatography, as comparison of vapor pressure)” value (from here on “Retention Time”) in data set [2] (setting [4]) stood at 20.1 min.

Consider `CC(C)=CC1C(C(=O)OCc2cccc(Oc3ccccc3)c2)C1(C)C` (stereo not drawn) [Phenothorin, reference compound], for which the “Retention Time” value in data set [2] was found to be 33.7 min.

For `CC=CC1C(C(=O)OCc2c(F)c(F)c(COC)c(F)c2F)C1(C)C` (stereo not drawn) [Sample Chemical A, 2,3,5,6-tetrafluoro-4-methoxymethylbenzyl 3-(1-propenyl)-2,2-dimethylcyclopropanecarboxylate], in data set [1], the “efficacy … compared with transfluthrin” value is reported as “more efficacious than transfluthrin”. For the same compound, the “Potency Ratio (Etoc 100), of IC50 Value” in data set [1] is 197.1. The “Potency Ratio (Etoc 100), of IC90 Value” in data set [1] is reported as 496.8. For the same compound, the “Retention Time” value in data set [2] (setting [4]) is on record as 25.1 min. In addition, in data set [2] (from GC retention times), the “vapor pressure compared with transfluthrin and d,d-T80-prallethrin” value is “lower than transfluthrin, but higher than d,d-T80-prallethrin”. The “potency and retention of potency compared with transfluthrin” value in data set [3] (comparison in words) was “higher in potency and also longer in retention time than transfluthrin”. For the same compound, the KT50 in data set [3] (elapsed time 0 hr) was determined as 6.53 min; in data set [3] (elapsed time 168 hr), 4.52 min; in data set [3] (elapsed time 336 hr), 5.38 min; in data set [3] (elapsed time 504 hr) it was 6.28 min; in data set [3] (elapsed time 672 hr) it was 7.25 min; in data set [3] (elapsed time 864 hr), 9.60 min. Further, the KT50 in data set [3] (elapsed time 1056 hr) is recorded as 8.50 min; in data set [3] (elapsed time 1200 hr), 8.80 min; in data set [3] (elapsed time 1344 hr), 9.70 min; in data set [3] (elapsed time 1536 hr), 8.97 min; in data set [3] (elapsed time 1680 hr), 11.60 min; in data set [3] (elapsed time 1848 hr) it was 12.50 min. In addition, the KT50 in data set [3] (elapsed time 2016 hr) amounted to 11.50 min; in data set [3] (elapsed time 2208 hr), 13.60 min; in data set [3] (elapsed time 2352 hr), 16.80 min; in data set [3] (elapsed time 2520 hr) it was 17.20 min; in data set [3] (elapsed time 2688 hr), 18.60 min; in data set [3] (elapsed time 2856 hr), 17.70 min. For the same compound, the KT50 came to 24.60 min in data set [3] (elapsed time 3024 hr), 27.80 min in data set [3] (elapsed time 3192 hr) and 31.60 min in data set [3] (elapsed time 3360 hr).

In the case of `COc1c(F)c(F)c(COC(=O)C2C(C=C(Cl)Cl)C2(C)C)c(F)c1F` (stereo not drawn) [Sample Chemical D, 2,3,5,6-tetrafluoro-4-methoxybenzyl 3-(2,2-dichlorovinyl)-2,2-dimethylcyclopropanecarboxylate], in data set [1], the “Potency Ratio (Etoc 100), of IC50 Value” was 17.5 and the “Potency Ratio (Etoc 100), of IC90 Value” was determined as 21.3.

As for `COCc1c(F)c(F)c(COC(=O)C2C(C=C(C)C)C2(C)C)c(F)c1F` (stereo not drawn) [Sample Chemical E, 2,3,5,6-tetrafluoro-4-methoxymethylbenzyl 3-(2-methyl-1-propenyl)-2,2-dimethylcyclopropanecarboxylate], in data set [1], the “Potency Ratio (Etoc 100), of IC50 Value” came out at 13.7 and the “Potency Ratio (Etoc 100), of IC90 Value” is recorded as 22.4.

In the case of `CC(C)=CC1C(C(=O)OCc2c(F)c(F)c(C)c(F)c2F)C1(C)C` (stereo not drawn) [Sample Chemical F, 2,3,5,6-tetrafluoro-4-methylbenzyl 3-(2-methyl-1-propenyl)-2,2-dimethylcyclopropanecarboxylate], in data set [1], the “Potency Ratio (Etoc 100), of IC50 Value” is listed as 6.6 and the “Potency Ratio (Etoc 100), of IC90 Value” is listed as 5.4.

As to `CC=CC1C(C(=O)OCc2c(F)c(F)c(C)c(F)c2F)C1(C)C` (stereo not drawn) [Sample Chemical G, 2,3,5,6-tetrafluoro-4-methylbenzyl 3-(1-propenyl)-2,2-dimethylcyclopropanecarboxylate], in data set [1], the “Potency Ratio (Etoc 100), of IC50 Value” stood at 2.8 and the “Potency Ratio (Etoc 100), of IC90 Value” was determined as 4.3.

In the case of `C#CC(OC(=O)C1C(C=C(F)Cl)C1(C)C)C(C)=CCC` (stereo not drawn) [Sample Chemical H, 1-ethynyl-2-methyl-2-pentenyl 3-(2-chloro-2-fluorovinyl)-2,2-dimethylcyclopropanecarboxylate], in data set [1], the “Potency Ratio (Etoc 100), of IC50 Value” stood at 2.0 and the “Potency Ratio (Etoc 100), of IC90 Value” turned out to be 3.1.

As for `C=CCC1=C(C)C(OC(=O)C2C(C)(C)C2(C)C)CC1=O` (stereo not drawn) [Terallethrin], in data set [1], the “IC50 Value (amount of volatilization at a 50% rate of bloodsucking prevention)” value amounted to 0.3650 mg/h; the “IC90 Value (amount of volatilization at a 90% rate of bloodsucking prevention)” value is 1.028 mg/h; the “efficacy … compared with transfluthrin” value was “lower effects of preventing mosquitoes from bloodsucking rats than transfluthrin”; the “Potency Ratio (Etoc 100), of IC50 Value” stood at 2.2. For the same compound, the “Potency Ratio (Etoc 100), of IC90 Value” in data set [1] was determined as 3.8. Besides, the “Retention Time” value in data set [2] is given as 23.3 min.

In the case of `C=CCC1=C(C)C(OC(=O)C2C(C=C(C)C)C2(C)C)CC1=O` (stereo not drawn) [d1,d-T80-allethrin], in data set [1], the “efficacy … compared with transfluthrin” value is reported as “lower effects of preventing mosquitoes from bloodsucking rats than transfluthrin”; the “Potency Ratio (Etoc 100), of IC50 Value” was determined as 12.9; the “Potency Ratio (Etoc 100), of IC90 Value” was 9.5. Further, in data set [2], the “Retention Time” value was found to be 26.6 min.

Consider `C#CCC1=C(C)C(OC(=O)C2C(C=C(C)C)C2(C)C)CC1=O` (stereo not drawn) [d,d-T80-prallethrin], for which, in data set [1], the “IC50 Value (amount of volatilization at a 50% rate of bloodsucking prevention)” value was 0.0081 mg/h; the “IC90 Value (amount of volatilization at a 90% rate of bloodsucking prevention)” value stood at 0.039 mg/h; the “efficacy … compared with transfluthrin” value is “more efficacious than transfluthrin”; the “Potency Ratio (Etoc 100), of IC50 Value” was 100.0. The “Potency Ratio (Etoc 100), of IC90 Value” in data set [1] was found to be 100.0. In addition, the “Retention Time” value in data set [2] (setting [4]) is 27.1 min.

Consider `C#CCc1ccc(COC(=O)C2C(C=C(C)C)C2(C)C)o1` (stereo not drawn) [d-T80-furamethrin], for which, in data set [1], the “IC50 Value (amount of volatilization at a 50% rate of bloodsucking prevention)” value worked out at 0.1170 mg/h; the “IC90 Value (amount of volatilization at a 90% rate of bloodsucking prevention)” value was found to be 0.270 mg/h; the “efficacy … compared with transfluthrin” value is listed as “lower effects of preventing mosquitoes from bloodsucking rats than transfluthrin”; the “Potency Ratio (Etoc 100), of IC50 Value” is recorded as 6.9. Besides, the “Potency Ratio (Etoc 100), of IC90 Value” in data set [1] was 14.4.
